Assays:
[1] = tested on: survivors in water taken from a citrus juice evaporator; assay: Efficacy in water taken from a citrus juice evaporator; comparison to non-oxidizing biocides; format: cell-based; settings: dose 30 mg/l
Procedure: Efficacy of NH4Cl+NaOCl in Water Taken from a Citrus Juice Evaporator; Comparison to Non-Oxidizing Biocides
Water demand: higher than 30 ppm of Cl2 (out of 30 ppm Cl2) within 60 minutes.
Concentration of stock solution (NH4Cl+NaOCl): 1000 ppm.
Algicol II is a quaternary ammonium salt.

[2] = tested on: MOs in starch sizing mixture; assay: Efficacy of oxidizing and non-oxidizing biocides in a starch sizing mixture (paper industry); format: cell-based; settings: 30 ppm active ingredient, 60° C.; for Surviving MOs after time (hours): 4: 4 hours; for Surviving MOs after time (hours): 28: 28 hours; for Surviving MOs after time (hours): 48: 48 hours; for Surviving MOs after time (hours): 72: 72 hours
Procedure: Efficacy of Oxidizing and Non-Oxidizing Biocides is a Starch Sizing Mixture (Paper Industry)
Efficacy was measured at 60° C.
NH4Br+NaOCl: stock concentration 0.1%.
Dosage: 30 ppm active ingredient.
Incubation temperature 60° C.

[3] = tested on: total aerobic viable counts; assay: Efficacy of oxidizing biocides in water taken from a paper mill (thick stock of pulp slurry); format: cell-based; settings: 15 mg/l as Cl2
Procedure: Efficacy of Oxidizing Biocides in Water Taken from a Paper Mill (Thick Stock of Pulp Slurry)
Microorganisms were incubated at 37° C. (total aerobic viable counts).
Concentration of stock solution: 0.1% as Cl2.

[4] = Residue as Cl2 in domestic waste; format: physicochemical; settings: 20 ppm as Cl2, contact time 10 minutes
Procedure: (§1) Efficacy of Oxidizing Biocides in Domestic Waste
(§2) Non-treated domestic waste roughly filtered; contact time: 10 minutes.
(§3) Stock concentration: 0.5% as Cl2.

total aerobic MOs = assay: Kinetics of kill in water from a citrus juice evaporator: total aerobic; format: cell-based; settings: 30 ppm as Cl2
Procedure: (§4) Kinetics of Kill of Various Mixtures of Ammonium Salts Mixed with NaOCl in Water from a Citrus Juice Evaporator
(§5) Demand: Higher than 30 ppm out of 30 ppm of Cl2 during 10 minutes.
(§6) Stock concentration of NH4X+NaOCl: 0.1% as Cl2

aerob. MOs = assay: Efficacy in domestic waste containing a high concentration of amines: aerobic MOs; format: cell-based; settings: 60 ppm; contact time 10 minutes; N as NH3 50mg/l; pH 6.10
Procedure: (§7) Efficacy of a Series of Biocides in Domestic Waste Containing a High Concentration of Amines
(§8) Incubation temperature: 27° C.
(§9) Stock concentration: 0.2%

bacillus mycoides = assay: Efficacy of ammonium bromide at various pHs; format: cell-based; settings: 2 ppm as Cl2
Procedure: Efficacy of Ammonium Bromide at Various pHs
Examined MO: bacillus mycoides
NH4Br+NaOCl: molar ratio 1:1; stock concentration: 0.5%;
NH4Br+NaOCl was either pre-mixed or added in situ to the buffer.
Demand: 1.8 ppm out of 2 ppm of Cl2 within 60 minutes.

total count [5] = assay: Dependence of efficacy of NH4Br+NaOCl on the concentration of stock solution, industrial waste water; format: cell-based; settings: no pre-mixed stock, 4 ppm as Cl2
Procedure: Dependence of Efficacy of Mixtures of NH4Br+NaOCl on the Concentrations of Stock Solution
Work was carried out in industrial waste water.
Stock concentrates were prepared in buffer at pH 7.00.
Biocidal dose: 4 ppm as Cl2.

Fecal coli = assay: Efficacy of oxidizing biocides in domestic waste: fecal coli; format: cell-based; settings: 20 ppm as Cl2; contact time 10 minutes
Procedure: as §1, §2, §3

total count [6] = assay: Pre-mixing versus in situ addition of ammonium salts and NaOCl, water from a corn-processing plant; format: cell-based; settings: 12 ppm, stock formed in water
Procedure: Pre-Mixing Versus in Situ Addition of Ammonium Salts and NaOCl
Water from a corn-processing plant; high demand for Cl2,
NH4Cl+NaOCl: stock concentration: 1%
NH4Br+NaOCl: stock concentration: 0.5%
Stock solutions were formed at pH 14.0; 7.0, 4.0 and in water.
For in situ addition: both NH4X and NaOCl were dissolved at the appropriate pH.

[7] = Residue as Cl2 in domestic waste containing a high concentration of amines; format: physicochemical; settings: 60 ppm
Procedure: as §7, §8, §9

[8] = tested on: fouling of size press filters; assay: Field experiment, starch sizing mixture (paper mill); settings: NaOCl (10% as Cl2) fed every 8 hours, 30 liters per portion
Procedure: • Paper mill, starch sizing • Contained volume: 20 m^3 • Flow rate: 8.33 m^3/h. (6% starch in H2O), • pH about 8.0 • Temperature: 50° C.-70° C.
Sizing mixture is recirculated in a size press through a filter (80 microns). Circulation rate: 6 m^3/h. The sizing mixture had been previously treated with NaOCl (10% as Cl2), which was fed every 8 hours (30 liters per portion).
Use of NaOCl was replaced by the use of a mixture of NH4Br+NaOCl (stock concentration 0.5% as Cl2).

total anaerobic MOs = assay: Kinetics of kill in water from a citrus juice evaporator: total anaerobic; format: cell-based; settings: 30 ppm as Cl2
Procedure: as §4, §5, §6

total count [9] = assay: Efficacy of oxidizing biocides in domestic waste: total count; format: cell-based; settings: 20 ppm as Cl2; contact time 10 minutes
Procedure: as §1, §2, §3

Pseudomonas sp. = assay: Efficacy in buffer at pH-7.5 against Pseudomonas sp.; format: cell-based; settings: buffer pH 7.5, 1 ppm as Cl2
Procedure: Efficacy in Buffer at pH-7.5 against Pseudomonas sp.
Chlorine demand: 0.1 ppm out of 1 ppm within 20 minutes
NH4Br+NaOCl: stock concentration: 1000 ppm as Cl2
Preparation of stock solution: NH4Br was dissolved in de-ionized water (2761 ppm). NaOCl (2000 ppm as Cl2) was quickly added dropwise to the ammonium bromide solution while stirring the mixture. The stock solution was used immediately.

[10] = Residue as Cl2 in water from a citrus juice evaporator; format: physicochemical; settings: 30 ppm as Cl2
Procedure: as §4, §5, §6

anaer. MOs = assay: Efficacy in domestic waste containing a high concentration of amines: anaerobic MOs; format: cell-based; settings: 60 ppm; contact time 10 minutes; N as NH3 50mg/l; pH 6.10
Procedure: as §7, §8, §9

N#CSCSC#N [MBT]
Survivors after time (hours): 1 ([1]; 1 hour): 1 × 10^6 cfu/ml | Survivors after time (hours): 24 ([1]; 24 hours): 1 × 10^3 cfu/ml | Survivors after time: 7 days ([1]; 7 days): 8 × 10^2 cfu/ml | Surviving MOs after time (hours): 4 [2]: 9 × 10^4 cfu/ml | Surviving MOs after time (hours): 28 [2]: 4 × 10^4 cfu/ml | Surviving MOs after time (hours): 48 [2]: 2 × 10^4 cfu/ml | Surviving MOs after time (hours): 72 [2]: 2 × 10^4 cfu/ml

Cn1sccc1=O [MIT]
Surviving MOs after time (hours): 4 [2]: 2 × 10^4 cfu/ml | Surviving MOs after time (hours): 28 [2]: 2 × 10^3 cfu/ml | Surviving MOs after time (hours): 48 [2]: 2 × 10^3 cfu/ml | Surviving MOs after time (hours): 72 [2]: 1 × 10^3 cfu/ml

[Na+].[O-]Cl [NaOCl, sodium hypochlorite]
Viable counts after time (minutes): 30 ([3]; 30 minutes): 6 × 10^3 cfu/ml | Viable counts after time (minutes): 70 ([3]; 70 minutes): 2 × 10^3 cfu/ml | Viable counts after time: 25 hours ([3]; 25 hours): 1 × 10^5 cfu/ml | residue as Cl2 free ([4]; free): 0 (0) ppm | residue as Cl2 (total) ([4]; total): 0 (0) ppm | Surviving MOs after time (minutes); total aerobic: 10 (total aerobic MOs; 10 minutes): 2 × 10^5 cfu/ml | Surviving MOs after time (minutes); total aerobic: 20 (total aerobic MOs; 20 minutes): 2 × 10^7 cfu/ml | Surviving MOs after time (minutes); total aerobic: 60 (total aerobic MOs; 60 minutes): 1 × 10^7 cfu/ml | Surviving MOs after 10 minutes aerob. (aerob. MOs): 9 × 10^2 cfu/ml | Survivors pH-7.0 60 m (bacillus mycoides; pH 7.0, 60 m): 1 × 10^5 cfu/ml | Survivors pH-7.0 180 m (bacillus mycoides; pH 7.0, 180 m): 1 × 10^5 cfu/ml | Survivors pH-7.0 24 h (bacillus mycoides; pH 7.0, 24 h): 1 × 10^5 cfu/ml | Survivors pH-8.0 60 m (bacillus mycoides; pH 8.0, 60 m): 3 × 10^5 cfu/ml | Survivors pH-8.0 180 m (bacillus mycoides; pH 8.0, 180 m): 1 × 10^5 cfu/ml | Survivors pH-8.0 24 h (bacillus mycoides; pH 8.0, 24 h): 1 × 10^5 cfu/ml | Survivors pH-9.0 60 m (bacillus mycoides; pH 9.0, 60 m): 1 × 10^5 cfu/ml | Survivors pH-9.0 180 m (bacillus mycoides; pH 9.0, 180 m): 1 × 10^5 cfu/ml | Survivors pH-9.0 24 h (bacillus mycoides; pH 9.0, 24 h): 1 × 10^5 cfu/ml | Survivors total count after time (minutes): 10 (total count [5]; 10 minutes): 9 × 10^5 cfu/ml | Survivors total count after time (minutes): 180 (total count [5]; 180 minutes): 7 × 10^5 cfu/ml | Fecal coli (Fecal coli): 5 × 10^5 cfu/ml | Survivors (total count) H2O, 60 minutes (total count [6]; 60 minutes): 2 × 10^6 cfu/ml | Survivors (total count) H2O, 180 minutes (total count [6]; 180 minutes): 2 × 10^6 cfu/ml | Residue free as Cl2 after 10 minutes ([7]; free): 0.2 | Residue (total) as Cl2 after 10 minutes ([7]; total): 1.5 | frequency of filter washing [8]: filters had to be washed once every two hours | Surviving MOs after time (minutes); (total anaerobic): 10 (total anaerobic MOs; 10 minutes): 8 × 10^4 cfu/ml | Surviving MOs after time (minutes); (total anaerobic): 20 (total anaerobic MOs; 20 minutes): 3 × 10^6 cfu/ml | total count (total count [9]): 6 × 10^6 cfu/ml | Survivors after time (minutes): 1 (Pseudomonas sp.; 1 minute): 4 × 10^6 cfu/ml | Survivors after time (minutes): 5 (Pseudomonas sp.; 5 minutes): 1 × 10^5 cfu/ml | Survivors after time (minutes): 10 (Pseudomonas sp.; 10 minutes): 4 × 10^2 cfu/ml | Survivors after time (minutes): 20 (Pseudomonas sp.; 20 minutes): 0 cfu/ml | Surviving MOs after time (hours): 4 [2]: 4 × 10^3 cfu/ml | Surviving MOs after time (hours): 28 [2]: 2 × 10^6 cfu/ml | Surviving MOs after time (hours): 48 [2]: 3 × 10^6 cfu/ml | Surviving MOs after time (hours): 72 [2]: 3 × 10^6 cfu/ml | residue as Cl2 free after time (minutes): 10 ([10]; free, 10 minutes): 0 (0) | residue as Cl2 free after time (minutes): 20 ([10]; free, 20 minutes): 0 (0) | residue as Cl2 free after time (minutes): 60 ([10]; free, 60 minutes): 0 (0) | residue as Cl2 (total) after time (minutes): 10 ([10]; total, 10 minutes): 0 (0) | residue as Cl2 (total) after time (minutes): 20 ([10]; total, 20 minutes): 0 (0) | residue as Cl2 (total) after time (minutes): 60 ([10]; total, 60 minutes): 0 (0) | Surviving MOs after 10 minutes anaer. (anaer. MOs): 3 × 10^3 cfu/ml

Reference: US20080003305A1, “PROCESS AND COMPOSITIONS FOR THE DISINFECTION OF WATERS” (BROMINE COMPOUNDS LIMITED, priority 1991, published 2008)
